The values below are quoted from earlier work in patent publication US7019016B2, “NMDA NR2B antagonists for treatment” (Pfizer Inc, priority 2000, dated 2006).

In data set [1] the target is NMDA receptors comprised of NR1/NR2B subunits (Homo sapiens, UniProt Q05586+Q13224). The conditions noted are these: NR1/NR2B subunits compared to NR1/NR2A, NR2C, or NR2D subunits.
The conditions of data set [2]: animal models of pain perception.

Chain of NMDA receptors comprised of NR1/NR2B subunits (Q13224 27-1484, other chains not shown): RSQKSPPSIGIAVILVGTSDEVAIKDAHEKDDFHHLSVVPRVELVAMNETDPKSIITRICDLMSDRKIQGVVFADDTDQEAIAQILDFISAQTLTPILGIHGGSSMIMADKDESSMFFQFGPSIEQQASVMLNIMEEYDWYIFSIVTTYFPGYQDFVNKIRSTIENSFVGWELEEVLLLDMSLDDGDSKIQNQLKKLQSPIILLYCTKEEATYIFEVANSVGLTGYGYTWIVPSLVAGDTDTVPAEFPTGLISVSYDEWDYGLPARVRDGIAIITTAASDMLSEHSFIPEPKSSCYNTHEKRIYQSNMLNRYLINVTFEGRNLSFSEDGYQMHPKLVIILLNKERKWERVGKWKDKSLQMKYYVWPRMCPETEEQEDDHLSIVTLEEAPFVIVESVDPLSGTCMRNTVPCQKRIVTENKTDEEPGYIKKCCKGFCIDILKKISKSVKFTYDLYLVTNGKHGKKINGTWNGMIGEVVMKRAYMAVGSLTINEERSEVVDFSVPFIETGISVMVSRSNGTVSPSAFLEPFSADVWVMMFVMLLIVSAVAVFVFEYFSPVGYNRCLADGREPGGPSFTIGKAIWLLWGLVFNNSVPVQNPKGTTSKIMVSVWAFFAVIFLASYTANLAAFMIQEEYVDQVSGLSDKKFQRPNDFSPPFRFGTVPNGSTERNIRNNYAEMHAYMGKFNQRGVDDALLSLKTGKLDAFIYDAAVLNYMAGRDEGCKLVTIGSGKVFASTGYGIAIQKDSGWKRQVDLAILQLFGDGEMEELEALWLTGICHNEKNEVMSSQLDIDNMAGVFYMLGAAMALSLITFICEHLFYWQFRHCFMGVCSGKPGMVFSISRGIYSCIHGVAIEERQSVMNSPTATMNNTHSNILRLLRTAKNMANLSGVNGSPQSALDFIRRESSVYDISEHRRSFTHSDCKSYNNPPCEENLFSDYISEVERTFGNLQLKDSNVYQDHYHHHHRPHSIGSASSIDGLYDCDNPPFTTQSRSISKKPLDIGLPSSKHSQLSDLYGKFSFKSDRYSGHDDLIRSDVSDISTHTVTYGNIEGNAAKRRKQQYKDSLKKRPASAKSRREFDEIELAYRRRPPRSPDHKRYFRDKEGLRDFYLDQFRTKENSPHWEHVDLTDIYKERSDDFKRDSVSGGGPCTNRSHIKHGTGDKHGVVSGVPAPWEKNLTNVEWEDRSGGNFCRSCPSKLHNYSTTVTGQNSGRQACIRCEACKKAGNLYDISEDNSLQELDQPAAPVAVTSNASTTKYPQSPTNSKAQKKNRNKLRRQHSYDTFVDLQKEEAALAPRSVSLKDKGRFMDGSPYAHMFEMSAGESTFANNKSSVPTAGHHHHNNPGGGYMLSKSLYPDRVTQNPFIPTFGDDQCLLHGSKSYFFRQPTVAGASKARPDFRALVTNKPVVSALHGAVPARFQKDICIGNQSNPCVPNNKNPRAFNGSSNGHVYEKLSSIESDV

Regarding `CC(C(O)c1ccc(O)cc1)N1CCC(Cc2ccccc2)CC1` (centres unmarked) [ifenprodil], the “blockade of ion current through NMDA receptors” value in data set [1] is “more potent and efficacious”. In addition, in data set [2], the analgesic activity entry is recorded as “significant analgesic activity”.
